# Laboratory results from US7445790B2, “External preparations for skin” (Shiseido Company, Ltd., priority 2002, dated 2008).
# Assays:
# [1] = IOB value of the oil component; assay type: physicochemical; details: obtained oil component
# [2] = Solubility of a slightly soluble triazine-type ultraviolet absorbent in oil components at 0° C.; assay type: physicochemical; details: concentration (mass percentage) in a saturated solution at 0° C. of 2,4-bis{[4-(2-ethylhexyloxy)-2-hydroxy]phenyl}-6-(4-methoxyphenyl)1,3,5-triazine in the oil component
# From the text: (§1) For the slightly soluble ultraviolet absorbent, a triazine-type ultraviolet absorbent 2,4-bis{[4-(2-ethylhexyloxy)-2-hydroxy]phenyl}-6-(4-methoxyphenyl)1,3,5-triazine was used.
# This oil component is a mixture of alkyl benzoates having 12-15 carbon atoms.
# as §1
IOB value [1],Solubility ([2]; Table 1-4) [%],Solubility ([2]; Table 2-1) [%],Compound
0.26,,,"CC(CCOC(=O)c1ccccc1)CC(C)(C)C (centres unmarked) [3,5,5-trimethylhexyl benzoate]"
,0,0,C[Si]1(C)O[Si](C)(C)O[Si](C)(C)O[Si](C)(C)O[Si](C)(C)O1 [Decamethyl cyclopentane siloxane]
0.26,,,CCCCC(CC)COC(=O)c1ccccc1 (centres unmarked) [2-ethylhexyl benzoate]
0.23,,,"CC(C)CCCC(C)CCOC(=O)c1ccccc1 (centres unmarked) [3,7-dimethyloctyl benzoate]"
